Patent US10647687B2, “Spiropyrazine derivatives as inhibitors of non-apoptotic regulated cell-death” (Helmholtz Zentrum München Deutsches Forschungszentrum für …, priority 2014, dated 2020)
Like-named read-outs stand apart in the source and are kept apart here.

Columns and labels:
Pfa1 cells = assay: Inhibition of non-apoptotic cell death after tamoxifen-induced GPx4 knockout (Pfa1/TAM, Example B.4); type: cell-based, mouse
Excerpt: To combat high intracellular ROS levels, mammalian cells have evolved an intricate network of ROS scavenging in cells, in which the thioredoxin and glutathione (GSH) dependent systems prevail. […] Knockout of GPx4 in neurons causes massive neurodegeneration in cortical, cerebellar and hippocampal neurons underscoring the high relevance of ROS-induced cell death signaling in the brain. Briefly, immortalised fibroblasts from these mice were made to contain tamoxifen-inducible CreERT2, which catalyzes the functional ablation of both copies of GPx4 and resulting in a complete knockout of GPx4, a massive ROS burst, and cell death in cell culture. These cells (Pfa1 cells) were used to characterize compounds disclosed herein, whereby tamoxifen (TAM) was given on day 0 along with the compound under test, and 72 hours later cell survival was evaluated using AlamarBlue.

[1] = test system: mouse hippocampal cell line (Ht22); assay: Inhibition of glutamate-induced non-apoptotic cell death (Ht22/GLU, Example B.2); type: cell-based
Excerpt: Glutamate toxicity is conferred on cells from the mouse hippocampal cell line (Ht22) by inhibition of the cysteine/glutamate antiporter, System xc-, leading to impaired cysteine uptake and subsequent GSH depletion. This model is frequently used for mimicking glutathione depletion following oxidative stress in stroke, brain trauma and other neurodegenerative diseases and cellular conditions following ischemia (for example: van Leyen et al, J. Neurochem. 92:824-30 (2005)).
Compounds disclosed herein were evaluated for their ability to promote cell survival upon administration of a lethal dose of glutamate (GLU) to the cell-culture medium.
Briefly, Ht22cells (ATCC or Invitrogen) were propagated DMEM supplemented with 10% FBS/1% Penicillin-Streptomycin, and then seeded onto 96-well plates at a concentration of 2,000 cells/well in 100 μL of MEDIA, simultaneously with glutamate (Sigma Aldrich) to a final concentration of 5 mM, together with increasing concentrations of the compound to be tested (0.5 pM to 100 μM), and the plates incubated at 37° C./5% CO2 for 72 hours. Compound dilutions were prepared from 10 mM stocks dissolved in DMSO and diluted in media. Cells treated with glutamate alone were used as negative control and alpha-tocopherol (Sigma Aldrich) was used as positive control. Compound concentrations were tested in triplicate. After incubation, cell survival was detected and quantified as described in Example B.1.

[2] = Cellular toxicity, Pfa1 cells without TAM (Example B.5); type: cell-based; details: mouse, read-out: TC50 (the source's name)
Excerpt: An estimate of the toxicity for compounds disclosed herein was obtained by using the same assay as described in Example B.4, but without the addition of TAM. […] Such TC50 values obtained for certain compounds disclosed herein, together with an approximate therapeutic window (estimated by dividing each TC50 by the corresponding IC50 determined from example B.4) are shown in Table 3 and Table 4.

SH-SY5Y cells = assay: Specificity: TNF-alpha-induced apoptosis in SH-SY5Y cells (Example B.3); type: cell-based, human; details: compound 1 μM, TNF-alpha 10 ng/mL, FIG. 1
Experimental: SH-SY5Y cells were propagated and seeded in 96-well plates, together with compound N-1, N-2, N-10 of Table 1-N (FIG. 1A), compound O/S-6 or O/S-3 of Table 1-O/S (FIG. 1B), or compound C-12, C-91, or C-205 of Table 1-C (FIG. 1C) (each 1 μM) and TNF-alpha was added (final concentration: 10 ng/mL) to induce apoptosis. The apoptosis and pan-caspase inhibitor z-vad (final concentration: 50 μM) and the necroptosis inhibitor Necrostatin-1 (Nec-1; final concentration: 5 μM) were used for comparison. Control wells were established with vehicle only (DMSO), with and without treatment with TNF-alpha to induce apoptosis. Cells were incubated, and cell survival was detected and quantified. Percentage cell survival after TNF-alpha-induced apoptosis is shown (error bars indicate standard deviation (SD)).
Briefly, SH-SY5Y cells were propagated and seeded in 96-well plates, together with the compound to be tested (1 μM), generally as described in Example B.1, except they were seeded at 1,000 cell/well and instead of BSO, TNF-alpha (Invitrogen) was added to a final concentration of 10 ng/mL to induce apoptosis. The apoptosis and pan-caspase inhibitor Z-VAD-fink (Enzo Life Science; final concentration 50 μM) and the necroptosis inhibitor Necrostatin-1 (Nec-1; Enzo Life Science; final concentration 5 μM) were used for comparison. Control wells were established with vehicle only (DMSO), with and without treatment with TNF-alpha to induce apoptosis. Cells were incubated, and cell survival was detected and quantified as described in Example B.1.

[3] = test system: human neuroblastoma cell line SH-SY5Y; assay: Inhibition of BSO-induced non-apoptotic cell death (SH-SY5Y/BSO, Example B.1); type: cell-based; details: BSO-induced non-apoptotic cell death, SH-SY5Y cells, 50 μM BSO, 72 hours
Excerpt: L-Buthionine sulfoximine (BSO) is a well-known glutathione (GSH) depletory, which inhibits gamma-glutamyl-cysteine-synthetase, the enzyme catalyzing the rate-limiting step in GSH biosynthesis. The human neuroblastoma cell line SH-SY5Y is sensitive to BSO-induced intracellular glutathione depletion, which causes high levels of reactive oxygen species (ROS) and cellular stress mimicking cellular conditions following ischemia (cf., e.g., Yamada et al., Neurochem. Int. 59:1003-9 (2011)).
Compounds disclosed herein were evaluated for their ability to promote cell survival upon administration of a lethal dose of BSO to cell-culture medium. […] After incubation, cell survival was detected using the live/dead cell assay AquaBluer™ (MultiTarget Pharmaceuticals) and quantified using a fluorescence plate reader (excitation filter: 530-560 nm/emission filter: 590 nm) (SpectraMax M4; Molecular Devices). Fluorescence data so obtained was normalised to the percentage of surviving cells and IC50 values calculated using the GraphPad Prism (GraphPad Software, Inc) software package.

[4] = Mus musculus, tamoxifen on day 0, cell survival after 72 hours
[5] = HT-22, 5 mM glutamate, 72 hours, cell survival, read-out: Ht22/GLU
[6] = * not tested at higher concentrations
[7] = Mus musculus, methylated analogues of C-2
[8] = HT-22, 72 h, read-out: Ht22/GLU [μM]
[9] = Mus musculus, tamoxifen-induced GPx4 knockout, Pfa1 cells
[10] = HT-22, glutamate-induced non-apoptotic cell death, Ht22 cells, read-out: Ht22/GLU

| Compound | IC50 (Pfa1 cells; [4]) [µM] | IC50 [1, 5] [µM] | CC50 [2, 6] [µM] | also measured |
| --- | --- | --- | --- | --- |
| c1ccc2c(c1)N=C(NCc1ccncc1)C1(CCCCC1)N2 [D-24] | < 5 | < 5 | > 50 |  |
| c1coc(CNC2=Nc3ccccc3NC23CCCCC3)c1 [D-23] | < 5 | < 5 | > 50 |  |
| Clc1ccc(CNC2=Nc3ccccc3NC23CCOCC3)cc1 [O/S-3] |  |  |  | Percentage cell survival after TNF-alpha-induced apoptosis (SH-SY5Y cells): Non-inhibition of apoptotic cell-death |
| Clc1cccc(CNC2=Nc3cc(Cl)ncc3NC23CCCCC3)c1 [D-11] | < 5 | < 5 | 10 to 50 |  |
| c1ccc2c(c1)CCCC2NC1=Nc2ccccc2NC12CCCCC2 [D-4] | < 0.2 | < 0.5 | 20 to 50 |  |
| CN1/C(=N/Cc2cccc(Cl)c2)C2(CCCCC2)N(C)c2ccccc21 [C-2-2Me] |  |  |  | IC50 (Pfa1 cells; [7]): > 10 µM |
| Clc1cccc(CNC2=Nc3ncccc3NC23CCCCC3)c1 [D-10] | < 5 | < 5 | 1 to 5 |  |
| c1ccc(CNC2=Nc3ccccc3NC23CC2CCC(C3)N2)cc1 [D-9] | < 0.5 |  | 5 to 10 | IC50 [1, 8]: < 0.5 µM |
| CN1CCC2(CC1)Nc1cc(Cl)c(Cl)cc1N=C2NCc1cccc(Cl)c1 [F-24] | < 0.05 | < 0.02 | 0.2 to 0.5 |  |
| c1ccc2c(c1)CCCC2NC1=Nc2ccccc2NC12CCNCC2 [D-7] | < 0.1 | < 0.2 | 10 to 20 |  |
| CCOC(=O)c1ccc2c(c1)N=C(NC1CCCCC1)C1(CCCCC1)N2 [D-14] | < 1 | < 0.5 | 10 to 50 |  |
| Clc1cccc(CNC2=Nc3ccccc3NC23CC2CCC(C3)N2)c1 [D-8] | < 0.05 |  | 2 to 5 | IC50 [1, 8]: < 0.05 µM |
| c1ccc2c(c1)CCC2NC1=Nc2ccccc2NC12CCCCC2 [D-2] | < 2 | < 1 | 10 to 50 |  |
| c1csc(CNC2=Nc3ccccc3NC23CCNCC3)c1 [D-181] | < 0.5 | < 0.1 | 20 to 50 |  |
| c1ccc2c(c1)CCC2NC1=Nc2ccccc2NC12CCOCC2 [D-3] | < 2 | < 5 | 50 to 100 |  |
| c1ccc2c(c1)N=C(NCc1cncs1)C1(CCCCC1)N2 [D-22] | < 5 | < 5 | > 50 |  |
| Clc1cccc(CNC2=Nc3ccccc3NC23CCCNCC3)c1 (stereo not drawn) [N-185] |  |  |  | IC50 (Pfa1 cells; [9]): < 0.2 µM; IC50 [1, 10]: < 0.5 µM; IC50 [3]: < 0.05 µM; CC50 ([2]; cellular toxicity): 1 to 2 µM |
| c1ccc2c(c1)CCC2NC1=Nc2ccccc2NC12CCNCC2 [D-5] | < 0.1 | < 0.2 | 5 to 10 |  |

| Compound | IC50 (Pfa1 cells; [4]) [µM] | IC50 [1, 5] [µM] | CC50 [2, 6] [µM] | also measured |
| --- | --- | --- | --- | --- |
| c1cncc(CNC2=Nc3ccccc3NC23CCCCC3)c1 [D-13] | < 5 | < 5 | 50 to 100 |  |
| CC(C)(C)NC1=Nc2ccccc2NC12CCSCC2 [D-16] | < 1 | < 1 | > 5 |  |
| Cc1cc(CNC2=Nc3ccccc3NC23CCCCC3)on1 [D-17] | < 5 | < 2 | > 50 |  |
| CN1c2ccccc2N=C(NCc2cccc(Cl)c2)C12CCCCC2 [C-2-Me-I] |  |  |  | IC50 (Pfa1 cells; methylated analogues of C-2): > 10 µM |
| c1ccc2c(c1)N=C(NCc1nccs1)C1(CCCCC1)N2 [D-20] | < 5 | < 2 | > 50 |  |
| C#CCCCCCCCCC(=O)N1CCC2(CC1)Nc1ccccc1N=C2NCc1cccc(Cl)c1 [F-25] | < 0.2 | < 0.2 | 10 to 20 |  |
| C#CCCCCCCCCC(=O)N1CCC2(CC1)Nc1cc(Cl)c(Cl)cc1N=C2NCc1cccc(Cl)c1 [F-26] | < 0.2 | < 0.2 | 10 to 20 |  |
| Clc1ccccc1CNC1=Nc2ccccc2NC12CCNCC2 [N-1] |  |  |  | Percentage cell survival after TNF-alpha-induced apoptosis (SH-SY5Y cells): Non-inhibition of apoptotic cell-death |
| CC(C)CCNC1=Nc2ccccc2NC12CCCCCC2 [D-1] | < 2 | < 1 | 10 to 50 |  |
| Clc1cc2c(cc1Cl)NC1(CCCCC1)C(NCc1cccs1)=N2 [D-21] | < 0.5 | < 0.2 | 5 to 10 |  |
| O=S1(=O)CCC2(CC1)Nc1ccccc1N=C2NCc1cccc(Cl)c1 [O/S-370] |  |  |  | IC50 (Pfa1 cells; [9]): < 2 µM; IC50 [1, 10]: < 5 µM; IC50 [3]: < 1 µM; CC50 ([2]; cellular toxicity): 50 to 100 µM |
| Clc1cc2c(cc1Cl)NC1(CCCCC1)C(NCc1cccnc1)=N2 [D-19] | < 0.5 | < 0.05 | 10 to 50 |  |
| Clc1cccc(CNC2=Nc3ccccc3NC23CCCCC3)c1 [C-2] |  |  |  | IC50 (Pfa1 cells; [7]): < 0.01 µM |
| CC1CCC2(CC1)Nc1ccccc1N=C2NCc1ccccc1Cl (stereo not drawn) [C-91] |  |  |  | Percentage cell survival after TNF-alpha-induced apoptosis (SH-SY5Y cells): Non-inhibition of apoptotic cell-death |
| c1ccc2c(c1)N=C(NCCc1c[nH]c3ccccc13)C1(CCNCC1)N2 [D-6] | < 0.1 | < 0.5 | 5 to 10 |  |
| CC(C)(C)NC1=Nc2ccccc2NC12CCOCC2 [D-15] | < 5 | < 5 | 50 to 100 |  |
| c1csc(CNC2=Nc3ccccc3NC23CCCCC3)c1 [D-12] | < 5 | < 1 | 10 to 50 |  |
| Clc1ccccc1CNC1=Nc2ccccc2NC12CCCCCC2 [C-205] |  |  |  | Percentage cell survival after TNF-alpha-induced apoptosis (SH-SY5Y cells): Non-inhibition of apoptotic cell-death |
